In patent publication US20220213060A1, “Crystal Form of Quinazolinone Compound and Preparation Method Therefor” (Luoxin Healthcare Science and Technology Development …, priority 2019, published 2022):

What was measured:
[1] = Solid stability test of crystal form A (influencing factors and accelerated conditions, HPLC/XRPD); format: physicochemical
Protocol: 1.5 High Performance Liquid Chromatograph Method
Sample concentration: 0.5 mg/mL
The stability of the crystal form A of the compound represented by formula (I) was investigated according to the Guideline for Stability Testing of APIs and Formulations (Chinese Pharmacopoeia 2015 Edition IV General Rule 9001).
5 mg of the crystal form A of the compound represented by formula (I) was weighed separately, placed in a dry and clean glass bottle, in duplicate, spread into a thin layer, as a formal test sample, the two samples were placed under the test conditions of influencing factors (60° C., 92.5% relative humidity) and accelerated conditions (30° C./65% relative humidity, 40° C./75% relative humidity and 60° C./75% relative humidity), the samples were fully exposed, covered with aluminum foil and pierced with small holes. Sampling and analysis were performed on day 5, day 10, and 1 month. Samples placed under illumination (total illumination 1200000 Lux·hr, near ultraviolet 200 w·hr/m^2) were completely exposed at room temperature.

[2] = Hygroscopicity by dynamic vapor sorption (DVS); format: physicochemical; conditions: 25° C. and 80% RH; listed as crystal form A of the compound represented by formula (I)
Protocol: 1.4 Dynamic Vapor Sorption (DVS) Method of the Present Disclosure
Instrument model: SMS DVS Advantage dynamic vapor sorption instrument
Detection conditions: 10-20 mg of sample was placed in a DVS sample tray for testing.
Detailed DVS parameters were as follows:
Equilibrium: dm/dt=0.01%/min: (shortest: 10 min, longest: 180 min)
Drying: drying at 0% RH for 120 min
RH (%) test gradient: 10%
RH (%) test gradient range: 0%-90%-0%
Hygroscopicity evaluation is classified as follows:
20 mg of the crystal form A of the compound represented by formula (I) was placed in the DVS sample tray for testing.

[3] = test system: MDA-MB-468; experiment: Akt phosphorylation inhibition in MDA-MB-468 cells (high expression of PI3Kβ); format: cell-based; conditions: MDA-MB-468 cell line with high expression of PI3Kβ
[4] = PK test of plasma on the last day of administration in the BT-474 xenograft study; format: in vivo, BALB/c nude mice; conditions: BT-474 tumor-bearing nude mice
Protocol: 0.5-1 hours after administration, the blood concentration reached the peak. The plasma exposure at the dose to play the effect was 69 300 nM*h.

[5] = 30° C., relative humidity 65%, open, 1 month
[6] = 30° C., relative humidity 65%, open, Day 10
[7] = 40° C., relative humidity 75%, open, 1 month
[8] = 40° C., relative humidity 75%, open, Day 10
[9] = 60° C., relative humidity 75%, open, 1 month
[10] = 60° C., relative humidity 75%, open, Day 10
[11] = High humidity (25° C./92.5% relative humidity, open), Day 5
[12] = High humidity (25° C./92.5% relative humidity, open), Day 10
[13] = High temperature (60° C., open), Day 5
[14] = High temperature (60° C., open), Day 10
[15] = Illumination (total illumination 1.2 × 106 Lux · hr/near ultraviolet 200 w · hr/m^2, open), Day 10
[16] = In the absence of light, Day 10

Content of the crystal form A of the compound represented by formula (I) (%) [1, 5]: 101.64% | Total impurity content (%) [1, 5]: 0.14% | Content of the crystal form A of the compound represented by formula (I) (%) [1, 6]: 104.28% | Total impurity content (%) [1, 6]: 0.14% | Content of the crystal form A of the compound represented by formula (I) (%) [1, 7]: 103.86% | Total impurity content (%) [1, 7]: 0.16% | Content of the crystal form A of the compound represented by formula (I) (%) [1, 8]: 103.79% | Total impurity content (%) [1, 8]: 0.15% | Content of the crystal form A of the compound represented by formula (I) (%) [1, 9]: 103.30% | Total impurity content (%) [1, 9]: 0.14% | Content of the crystal form A of the compound represented by formula (I) (%) [1, 10]: 103.63% | Total impurity content (%) [1, 10]: 0.14% | Content of the crystal form A of the compound represented by formula (I) (%) ([1]; Day 0): 103.08% | Total impurity content (%) ([1]; Day 0): 0.14% | Content of the crystal form A of the compound represented by formula (I) (%) [1, 11]: 103.08% | Total impurity content (%) [1, 11]: 0.14% | Content of the crystal form A of the compound represented by formula (I) (%) [1, 12]: 103.95% | Total impurity content (%) [1, 12]: 0.14% | Content of the crystal form A of the compound represented by formula (I) (%) [1, 13]: 104.39% | Total impurity content (%) [1, 13]: 0.14% | Content of the crystal form A of the compound represented by formula (I) (%) [1, 14]: 102.00% | Total impurity content (%) [1, 14]: 0.14% | Content of the crystal form A of the compound represented by formula (I) (%) [1, 15]: 103.04% | Total impurity content (%) [1, 15]: 0.14% | Content of the crystal form A of the compound represented by formula (I) (%) [1, 16]: 102.57% | Total impurity content (%) [1, 16]: 0.15% | Stability (conclusion of the solid stability test) ([1]; all test conditions of Table 7): good stability | Classification for hygroscopicity [2]: slightly hygroscopic (2% > ΔW% ≥ 0.2%) | ΔW, hygroscopical weight gain [2]: 0.885% | Plasma exposure at the dose to play the effect ([4]; oral 10 mg/kg, last day of administration): 69 300 nM*h | Plasma exposure with the increase of administration dose ([4]; oral 10, 20, 40 mg/kg): increased linearly | Time after administration at which the blood concentration reached the peak ([4]; oral, last day of administration): 0.5 to 1 h
Compound: CNC(=O)[C@H](C)Cn1cnc2ccc(-c3cnc(OC)c(NS(=O)(=O)c4ccc(F)cc4F)c3)cc2c1=O
Selectivity PI3Kα over PI3Kβ, Akt phosphorylation inhibitory activity in cells [3]: 195 times
